# Experimental data taken from US20220081422A1 (Janssen Biotech, Inc., priority 2019, published 2022).
# Legend:
# [1] = target: T1, human DHODH (Homo sapiens, UniProt Q02127); experiment: DHODH enzymatic assay (DCIP absorbance, end-point); type: biochemical; conditions: purified human DHODH, DCIP as final electron acceptor, end-point mode; read-out: hDHODH IC50
# T1 construct: purchased Proteros PR-0044
# Outline: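 Purified human DHODH; end-point absorbance of DCIP reduction as terminal electron acceptor. Reaction started with substrate mix of 20 mM DHO, 5 mM CoQ6, 1 mM DCIP (substrate-solution concentrations) in […] pH 7.5, 150 mM NaCl, 0.5 mM EDTA, 0.1% Triton X-100.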
# [2] = tested on: MOLM-13 cells; experiment: MOLM-13 cellular assay (CellTiter-Glo cell viability); type: cell-based; conditions: Homo sapiens, MOLM-13, 72 h, 72 hours exposure, cell viability by CellTiter-Glo
# Outline: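 Cells seeded at 5,000/well and exposed to graded compound concentrations for 72 h at 37° C, 5% CO2 immediately after seeding. Viability read by CellTiter-Glo luminescence.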
# T1 sequence (Q02127 whole entry): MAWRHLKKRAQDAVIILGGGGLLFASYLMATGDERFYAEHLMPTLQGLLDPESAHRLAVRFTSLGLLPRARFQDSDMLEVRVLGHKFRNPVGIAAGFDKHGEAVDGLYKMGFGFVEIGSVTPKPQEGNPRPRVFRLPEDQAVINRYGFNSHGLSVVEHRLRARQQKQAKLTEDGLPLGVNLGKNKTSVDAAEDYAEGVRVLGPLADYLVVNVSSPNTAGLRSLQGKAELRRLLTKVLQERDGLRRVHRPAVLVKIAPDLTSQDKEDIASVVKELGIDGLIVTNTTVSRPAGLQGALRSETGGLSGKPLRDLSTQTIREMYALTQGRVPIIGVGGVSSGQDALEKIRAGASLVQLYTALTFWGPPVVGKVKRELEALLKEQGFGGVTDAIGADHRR
structure (smiles),measurement,setting,value
"CCn1c(CO)nn(-c2cc3c(cc2F)C(=O)N(c2c(F)cccc2Cl)CN3[C@@H](C)C2CCCCC2)c1=O [Example 17, (S)-3-(2-Chloro-6-fluorophenyl)-1-(1-cyclohexylethyl)-7-(4-ethyl-3-(hydroxymethyl)-5-oxo-4,5-dihydro-1H-1,2,4-triazol-1-yl)-6-fluoro-2,3-dihydroquinazolin-4(1H)-one]",IC50,[1],0.1 nM
same,IC50,[2],< 1.69 nM
"CCn1c(CO)nn(-c2cc3c(cc2F)C(=O)N(c2c(F)cccc2Cl)CN3CC(C)C)c1=O [Example 18, 3-(2-Chloro-6-fluorophenyl)-7-(4-ethyl-3-(hydroxymethyl)-5-oxo-4,5-dihydro-1H-1,2,4-triazol-1-yl)-6-fluoro-1-isobutyl-2,3-dihydroquinazolin-4(1H)-one]",IC50,[1],2 nM
same,IC50,[2],3.99 nM
"CCn1c(CO)nn(-c2cc3c(cc2F)C(=O)N(c2c(F)cccc2Cl)CN3C2CCC2)c1=O [Example 19, 3-(2-Chloro-6-fluorophenyl)-1-cyclobutyl-7-(4-ethyl-3-(hydroxymethyl)-5-oxo-4,5-dihydro-1H-1,2,4-triazol-1-yl)-6-fluoro-2,3-dihydroquinazolin-4(1H)-one]",IC50,[1],3 nM
same,IC50,[2],2.57 nM
"CCCCN1CN(c2c(F)cccc2Cl)C(=O)c2cc(F)c(-n3nc(CO)n(CC)c3=O)cc21 [Example 20, 1-Butyl-3-(2-chloro-6-fluorophenyl)-7-(4-ethyl-3-(hydroxymethyl)-5-oxo-4,5-dihydro-1H-1,2,4-triazol-1-yl)-6-fluoro-2,3-dihydroquinazolin-4(1H)-one]",IC50,[1],5 nM
same,IC50,[2],10.2 nM
"CCn1c(CO)nn(-c2cc3c(cc2F)C(=O)N(c2c(F)cccc2Cl)CN3CC2CCCCC2)c1=O [Example 21, 3-(2-Chloro-6-fluorophenyl)-1-(cyclohexylmethyl)-7-(4-ethyl-3-(hydroxymethyl)-5-oxo-4,5-dihydro-1H-1,2,4-triazol-1-yl)-6-fluoro-2,3-dihydroquinazolin-4(1H)-one]",IC50,[1],6 nM
same,IC50,[2],22.9 nM
"CCCN1CN(c2c(F)cccc2Cl)C(=O)c2cc(F)c(-n3nc(CO)n(CC)c3=O)cc21 [Example 22, 3-(2-Chloro-6-fluorophenyl)-7-(4-ethyl-3-(hydroxymethyl)-5-oxo-4,5-dihydro-1H-1,2,4-triazol-1-yl)-6-fluoro-1-propyl-2,3-dihydroquinazolin-4(1H)-one]",IC50,[1],4 nM
same,IC50,[2],5.49 nM
"CCn1c(CO)nn(-c2nc3c(cc2F)C(=O)N(c2c(F)cccc2Cl)CN3[C@@H](C)C2OCCCO2)c1=O [Example 23, (S)-1-(1-(1,3-Dioxan-2-yl)ethyl)-3-(2-chloro-6-fluorophenyl)-7-(4-ethyl-3-(hydroxymethyl)-5-oxo-4,5-dihydro-1H-1,2,4-triazol-1-yl)-6-fluoro-2,3-dihydropyrido[2,3-d]pyrimidin-4(1H)-one]",IC50,[1],3 nM
same,IC50,[2],6.64 nM
"CCC[C@H](C)N1CN(c2c(F)cccc2Cl)C(=O)c2cc(F)c(-n3nc(CO)n(CC)c3=O)nc21 [Example 24, (S)-3-(2-Chloro-6-fluorophenyl)-7-(4-ethyl-3-(hydroxymethyl)-5-oxo-4,5-dihydro-1H-1,2,4-triazol-1-yl)-6-fluoro-1-(pentan-2-yl)-2,3-dihydropyrido[2,3-d]pyrimidin-4(1H)-one]",IC50,[1],0.4 nM
same,IC50,[2],< 1.69 nM
"CCn1c(CO)nn(-c2cc3c(cc2F)C(=O)N(c2cc(C)ccc2F)CN3C(C)C)c1=O [Example 26, 7-(4-Ethyl-3-(hydroxymethyl)-5-oxo-4,5-dihydro-1H-1,2,4-triazol-1-yl)-6-fluoro-3-(2-fluoro-5-methylphenyl)-1-isopropyl-2,3-dihydroquinazolin-4(1H)-one]",IC50,[1],20 nM
same,IC50,[2],27.5 nM
"CCn1c(CO)nn(-c2cc3c(cc2F)C(=O)N(c2c(F)cncc2C#N)CN3C(C)C)c1=O [Example 27, 4-(7-(4-Ethyl-3-(hydroxymethyl)-5-oxo-4,5-dihydro-1H-1,2,4-triazol-1-yl)-6-fluoro-1-isopropyl-4-oxo-1,4-dihydroquinazolin-3(2H)-yl)-5-fluoronicotinonitrile]",IC50,[1],30 nM
same,IC50,[2],48.1 nM
"CCn1c(CO)nn(-c2cc3c(cc2F)C(=O)N(c2c(C)ccnc2Cl)CN3C(C)C)c1=O [Example 28, 3-(2-Chloro-4-methylpyridin-3-yl)-7-(4-ethyl-3-(hydroxymethyl)-5-oxo-4,5-dihydro-1H-1,2,4-triazol-1-yl)-6-fluoro-1-isopropyl-2,3-dihydroquinazolin-4(1H)-one]",IC50,[1],20 nM
same,IC50,[2],36.1 nM
"CCn1c(CO)nn(-c2cc3c(cc2F)C(=O)N(c2c(F)cncc2Cl)CN3C(C)C)c1=O [Example 29, 3-(3-Chloro-5-fluoropyridin-4-yl)-7-(4-ethyl-3-(hydroxymethyl)-5-oxo-4,5-dihydro-1H-1,2,4-triazol-1-yl)-6-fluoro-1-isopropyl-2,3-dihydroquinazolin-4(1H)-one]",IC50,[1],20 nM
same,IC50,[2],27.3 nM
"CCn1c(CO)nn(-c2cc3c(cc2F)C(=O)N(c2nc(OC)ccc2Cl)CN3C(C)C)c1=O [Example 30, 3-(3-Chloro-6-methoxypyridin-2-yl)-7-(4-ethyl-3-(hydroxymethyl)-5-oxo-4,5-dihydro-1H-1,2,4-triazol-1-yl)-6-fluoro-1-isopropyl-2,3-dihydroquinazolin-4(1H)-one]",IC50,[1],3 nM
same,IC50,[2],3.39 nM
"CC[C@H](C)N1CN(c2c(F)cccc2Cl)C(=O)c2cc(F)c(-n3nc(CO)n(CC)c3=O)nc21 [Example 31, (S)-1-(sec-Butyl)-3-(2-chloro-6-fluorophenyl)-7-(4-ethyl-3-(hydroxymethyl)-5-oxo-4,5-dihydro-1H-1,2,4-triazol-1-yl)-6-fluoro-2,3-dihydropyrido[2,3-d]pyrimidin-4(1H)-one]",IC50,[1],0.7 nM
same,IC50,[2],0.962 nM
"CCn1c(CO)nn(-c2cc3c(cc2F)C(=O)N(c2c(C)cnc(OC)c2Cl)CN3C(C)C)c1=O [Example 32, 3-(3-Chloro-2-methoxy-5-methylpyridin-4-yl)-7-(4-ethyl-3-(hydroxymethyl)-5-oxo-4,5-dihydro-1H-1,2,4-triazol-1-yl)-6-fluoro-1-isopropyl-2,3-dihydroquinazolin-4(1H)-one]",IC50,[1],9 nM
same,IC50,[2],5.96 nM
